Measurements taken from patent US20230000813A1, “COMPOUND FOR THE TREATMENT OF BOVINE OR SWINE RESPIRATORY DISEASE” (Intervet Inc., priority 2016, published 2023).
Values after ≈ are worked out from the molar mass of the structure shown.

Key:
Assay in all cases: MIC, broth-microdilution (CLSI VET01-A4)
Assay type in all cases: cell-based
[1] = system: Mannheimia haemolytica MH 13065 (XB0446-6003.9, BRD field isolate)
Outline: (§1)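 Broth microdilution per CLSI VET01-A4 using doubling dilution series of compound. MIC taken as the lowest concentration with no turbidity visible to the unaided eye, interpreted per CLSI VET01-S3.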

[2] = system: Mannheimia haemolytica MH 13093 (XB0472-6014.1, BRD field isolate)
Outline: as §1

[3] = system: Pasteurella multocida PM 12080 (IV102277-0093, BRD field isolate); details: Pasteurella multocida PM 12080; for MIC: read-out: MIC PM 12080
Outline: (§2)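 Read-out is visual: the MIC is the lowest compound concentration at which no turbidity is seen by eye. Trays carried a doubling dilution series, with interpretation following CLSI VET01-S3.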

[4] = system: Pasteurella multocida PM 6267 (P 2225 (L386), reference strain, mouse infection strain); details: Pasteurella multocida PM 6267
Outline: as §2

[5] = system: Mannheimia haemolytica MH 6374 (ATCC 33396, reference strain); details: Mannheimia haemolytica MH 6374; for MIC: read-out: MIC MH 6374
Outline: as §2

[6] = system: Pasteurella multocida PM 10775 (080130003051, BRD field isolate); details: Pasteurella multocida PM 10775
Outline: as §2

[7] = system: Pasteurella multocida PM 6391 (ATCC 43137, reference strain); details: Pasteurella multocida PM 6391; for MIC: read-out: MIC PM 6391
Outline: as §2

[8] = system: Mannheimia haemolytica MH 6357 (M7/2, reference strain, cattle infection strain); details: Mannheimia haemolytica MH 6357; for MIC: read-out: MIC MH 6357
Outline: as §2

[9] = system: Mannheimia haemolytica MH 10720 (154, BRD field isolate); details: Mannheimia haemolytica MH 10720
Outline: as §2

[10] = system: Mannheimia haemolytica MH 12587 (1071, BRD field isolate, macrolide-resistance: erm+, E+); details: Mannheimia haemolytica MH 12587, macrolide-resistant
Outline: as §2

SMILES	MIC [1]	MIC [2]	MIC PM 12080 [3]	MIC PM 6267 [4]	MIC [5]	MIC PM 10775 [6]	MIC PM 6391 [7]	MIC [8]	MIC MH 10720 [9]	MIC MH 12587 [10]	MIC [7]	MIC [3]	MIC ([4]; read-out: MIC PM 6267)	MIC ([9]; read-out: MIC MH 10720)	MIC MH 6374 [5]	MIC MH 6357 [8]	MIC MH 13065 [1]
CC(C)(C(NC(=O)c1ccc(C#Cc2ccc(CNCc3cccnc3)cc2)cc1)C(=O)NO)S(C)(=O)=O (centres unmarked) [C. 613]	0.8 µM (≈ 0.428 µg/mL)	0.8 µM (≈ 0.428 µg/mL)	<=0.1 μM	<=0.1 μM	0.4 µM (≈ 0.214 µg/mL)	<=0.1 μM	<=0.1 μM	0.8 µM (≈ 0.428 µg/mL)	<=0.1 μM	1.6 µM (≈ 0.855 µg/mL)	–	–	–	–	–	–	–
CC(C)([C@H](NC(=O)c1ccc(C#Cc2ccc(CNCc3cccs3)cc2)cc1)C(=O)NO)S(C)(=O)=O [Compound 617]	0.2 µM (≈ 0.108 µg/mL)	0.4 µM (≈ 0.216 µg/mL)	<=0.1 μM	<=0.1 μM	0.2 µM (≈ 0.108 µg/mL)	<=0.1 μM	<=0.1 μM	0.4 µM (≈ 0.216 µg/mL)	<=0.1 μM	0.8 µM (≈ 0.432 µg/mL)	–	–	–	–	–	–	–
CSC(C)(C)[C@H](NC(=O)c1ccc(C#Cc2ccc(CNCc3cccs3)cc2)cc1)C(=O)NO [Compound 597]	0.8 µM (≈ 0.406 µg/mL)	0.8 µM (≈ 0.406 µg/mL)	<=0.1 μM	<=0.1 μM	0.8 µM (≈ 0.406 µg/mL)	<=0.1 μM	–	0.8 µM (≈ 0.406 µg/mL)	<=0.1 μM	1.6 µM (≈ 0.812 µg/mL)	0.2 µM (≈ 0.102 µg/mL)	–	–	–	–	–	–
COc1ccc(CNCc2ccc(C#Cc3ccc(C(=O)NC(C(=O)NO)C(C)(C)O)cc3)cc2)cc1 (centres unmarked) [Compound 570]	0.8 µM (≈ 0.401 µg/mL)	0.8 µM (≈ 0.401 µg/mL)	<=0.1 μM	<=0.1 μM	0.8 µM (≈ 0.401 µg/mL)	<=0.1 μM	–	0.8 µM (≈ 0.401 µg/mL)	<=0.1 μM	1.6 µM (≈ 0.803 µg/mL)	0.4 µM (≈ 0.201 µg/mL)	–	–	–	–	–	–
CSC(C)(C)[C@H](NC(=O)c1ccc(C#Cc2ccc(CNCc3nccs3)nc2)cc1)C(=O)NO [Compound 744]	0.8 µM (≈ 0.408 µg/mL)	1.6 µM (≈ 0.815 µg/mL)	–	–	0.8 µM (≈ 0.408 µg/mL)	<=0.1 μM	–	0.8 µM (≈ 0.408 µg/mL)	–	1.6 µM (≈ 0.815 µg/mL)	0.4 µM (≈ 0.204 µg/mL)	0.2 µM (≈ 0.102 µg/mL)	0.4 µM (≈ 0.204 µg/mL)	0.4 µM (≈ 0.204 µg/mL)	–	–	–
C[C@@H](O)[C@H](NC(=O)c1ccc(C#Cc2ccc(CNCc3cccs3)cc2)cc1)C(=O)NO [Compound 260]	0.4 µM (≈ 0.185 µg/mL)	0.4 µM (≈ 0.185 µg/mL)	<=0.1 μM	<=0.1 μM	–	<=0.1 μM	<=0.1 μM	–	<=0.1 μM	0.4 µM (≈ 0.185 µg/mL)	–	–	–	–	<=0.1 μM	<=0.1 μM	–
CCC(C)C(NC(=O)c1ccc(C#Cc2ccc(CNC3CC3)cc2)cc1)C(=O)NO (centres unmarked) [Compound 164]	0.4 µM (≈ 0.168 µg/mL)	0.4 µM (≈ 0.168 µg/mL)	–	<=0.1 μM	0.781 µM (≈ 0.328 µg/mL)	<=0.1 μM	–	0.391 µM (≈ 0.164 µg/mL)	<=0.1 μM	0.8 µM (≈ 0.336 µg/mL)	0.391 µM (≈ 0.164 µg/mL)	0.2 µM (≈ 0.0839 µg/mL)	–	–	–	–	–
CC(C)(O)C(NC(=O)c1ccc(C#Cc2ccc(CNCc3cccs3)cc2)cc1)C(=O)NO (centres unmarked) [Compound 578]	–	0.2 µM (≈ 0.0955 µg/mL)	<=0.1 μM	<=0.1 μM	–	<=0.1 μM	<=0.1 μM	0.4 µM (≈ 0.191 µg/mL)	<=0.1 μM	0.4 µM (≈ 0.191 µg/mL)	–	–	–	–	<=0.1 μM	–	<=0.1 μM
